Earlier results on five compounds are cited in paper PMC11904481 (ESMO Open, 2025).

Values joined by “and” are separate entries in the source; they are usually repeats but may differ in a detail not shown here. Identical values can stand only once.

The data set deals with patients. The settings on record: cited from earlier work; for diarrhea / nausea: patients treated with oral ERK inhibitor.
Setting [1] is: ocular TEAE, oral ERK inhibitor.

For `Cc1cnc(NC2CCOCC2)nc1-n1cnc(C(=O)N[C@H](CN)c2cc(F)cc(Cl)c2)c1` [ASN007], the diarrhea is listed as 30% and the nausea is listed as 30%.

`Cn1nccc1Nc1nccc(-c2ccn([C@H](CO)c3ccc(Cl)c(F)c3)c(=O)c2)n1` [GDC-0994, (S)-1-(1-(4-chloro-3-fluorophenyl)-2-hydroxyethyl)-4-(2-((1-methyl-1H-pyrazol-5-yl)amino)pyrimidin-4-yl)pyridin-2(1H)-one]: the diarrhea is reported as 49% and the nausea was 32%. In addition, the blurred vision under setting [1] is on record as 13%.

For `Cn1nccc1Nc1nccc(-c2cc3c(s2)C(C)(C)N(CCN2CCOCC2)C3=O)n1` [LY3214996], under setting [1], the blurred vision was 15%.

As for `CS[C@@]1(C(=O)Nc2ccc3[nH]nc(-c4ccc(OC(C)C)nc4)c3c2)CCN(CC(=O)N2CC=C(c3ccc(-c4ncn(C)n4)cc3)CC2)C1` [MK-8353], the diarrhea was > 40% and 44%; the nausea is 28%. In addition, the blurred vision under setting [1] is reported as 8%. For the same compound, for the setting “oral ERK inhibitor”, the oropharyngeal pain is given as 8%.

Take `CC(C)Nc1cc(-c2c[nH]c(C(=O)N[C@H](CO)c3cccc(Cl)c3)c2)c(Cl)cn1` [ulixertinib]: the diarrhea is > 40% and 48%; the nausea was 42%. The retinopathy under setting [1] is reported as 14%. In addition, the “patients with dose reductions due to toxicity” value (phase I clinical trial, oral) is 32%.
